Results taken from patent US10781467B2, “3-epimerase and polynucleotide encoding same” (priority 2016, dated 2020).

Tests used:
3-epimerase [1] = test: Metal dependence of 3-epimerase; type: biochemical, Thermogemmatispora carboxidivorans; conditions: 1 mM metal ion; for Relative activity (%): EDTA-treated 3-epimerase 0.04 U/mL, 10% (w/v) fructose, Tris pH 7.5, 60° C., 20 minutes, None = 100; for effect of metal ion on enzyme activity: fructose as substrate
Description: In the current experimental examples, the enzyme activity is measured using fructose and sorbose as substrates. […] The sodium phosphate buffer solution containing fructose or sorbose is prepared by dissolving fructose or sorbose in a sodium phosphate buffer solution pH 7-8 to give a concentration of 60-70% (w/v). The sodium phosphate buffer solution containing fructose or sorbose is continuously added to a bioreactor maintained at 60° C. For the purpose of facilitating the comparison of enzyme activities, one unit of allulose-3-epimerase is defined as an amount of allulose-3-epimerase required to produce […] of D-allulose per minute at pH 7.5 and 60° C.; and one unit of tagatose-3-epimerase is defined as an amount of tagatose-3-epimerase required to produce […] of D-tagatose per minute at pH 7.5 and 60° C. The concentrations of fructose, D-allulose, sorbose, and D-tagatose are determined by high performance liquid chromatography with a BP-100 calcium ion […] column and an RI detector. The column temperature is 80° C., and the mobile phase is ultrapure water with a flow rate of 0.5 mL/min. In Example 3, in order to investigate the effect of metal ions on the 3-epimerase, the effect on the activity of 3-epimerase was measured with fructose as a substrate in the presence of various metal ions. The measurement was carried out by treating 3-epimerase with EDTA, and then adding 1 mM of various metal ions shown in Table 1 below to the 3-epimerase solution. The reaction catalyzed by 3-epimerase was carried out in a 50 mM Tris buffer pH 7.5 at 60° C. for 20 minutes, where the Tris buffer contained 0.04 U/mL 3-epimerase and 10% (w/v) fructose. The reaction solution was further heated at 100° C. for 15 minutes to terminate the reaction, and then the activity of the 3-epimerase was measured.

3-epimerase [2] = test: Specificity of 3-epimerase for substrate; type: biochemical, Thermogemmatispora carboxidivorans; conditions: for 3-epimerase activity for substrate: 10 mM monosaccharide; for Relative activity (%): 0.04 U/ml 3-epimerase, 10 mM monosaccharide as substrate, pH 7.5, 60° C., 20 minutes
Description: In the current experimental examples, the enzyme activity is measured using fructose and sorbose as substrates. In order to measure the enzyme activity, 3-epimerase is mixed with 50 mM sodium phosphate buffer solution (pH 7.5) containing 10% fructose or sorbose, reacted at 60° C. for 20 minutes, and then heated at 100° C. for 15 minutes to terminate the reaction. The sodium phosphate buffer solution containing fructose or sorbose is prepared by dissolving fructose or sorbose in a sodium phosphate buffer solution pH 7-8 to give a concentration of 60-70% (w/v). The sodium phosphate buffer solution containing fructose or sorbose is continuously added to a bioreactor maintained at 60° C. For the purpose of facilitating the comparison of enzyme activities, one unit of allulose-3-epimerase is defined as an amount of allulose-3-epimerase required to produce […] of D-allulose per minute at pH 7.5 and 60° C.; and one unit of tagatose-3-epimerase is defined as an amount of tagatose-3-epimerase required to produce […] of D-tagatose per minute at pH 7.5 and 60° C. The concentrations of fructose, D-allulose, sorbose, and D-tagatose are determined by high performance liquid chromatography with a BP-100 calcium ion […] column and an RI detector. The column temperature is 80° C., and the mobile phase is ultrapure water with a flow rate of 0.5 mL/min.
The reaction catalyzed by 3-epimerase was carried out in a 50 mM sodium phosphate buffer solution pH 7.5 at 60° C. for 20 minutes, where the sodium phosphate buffer solution contained 0.04 U/ml 3-epimerase and 10 mM of various individual monosaccharides shown in Table 2 below. Each reaction solution was heated at 100° C. for 15 minutes to terminate the reaction, and then the enzyme activity of the 3-epimerase in each reaction solution was measured.

[3] = in humans; cited from earlier work

[Ca+2] [Ca^2+]
Relative activity (%) (3-epimerase [1]): 65%

[Co+2] [Co^2+]
effect of metal ion on enzyme activity (3-epimerase [1]): enhance the enzyme activity
Relative activity (%) (3-epimerase [1]): 170%

[Cu+2] [Cu^2+]
effect of metal ion on enzyme activity (3-epimerase [1]): inhibit the enzyme activity
Relative activity (%) (3-epimerase [1]): 0%

O=C(CO)[C@H](O)[C@H](O)[C@H](O)CO [D-allulose, D-ribo-2-hexulose]
3-epimerase activity for substrate (3-epimerase [2]): active
Relative activity (%) (3-epimerase [2]): 100%

O=C(CO)[C@@H](O)[C@@H](O)[C@H](O)CO [D-tagatose]
3-epimerase activity for substrate (3-epimerase [2]): active
Relative activity (%) (3-epimerase [2]): 40.7%
absorption rate [3]: 20 to 25%

O=C(CO)[C@@H](O)[C@H](O)[C@H](O)CO [Fructose, D-fructose]
3-epimerase activity for substrate (3-epimerase [2]): active
Relative activity (%) (3-epimerase [2]): 63.9%

[K+] [K^+]
Relative activity (%) (3-epimerase [1]): 113%

[Mg+2] [Mg^2+]
effect of metal ion on enzyme activity (3-epimerase [1]): enhance the enzyme activity
Relative activity (%) (3-epimerase [1]): 130%

[Mn+2] [Mn^2+]
effect of metal ion on enzyme activity (3-epimerase [1]): enhance the enzyme activity
Relative activity (%) (3-epimerase [1]): 168%

[Na+] [Na^+]
Relative activity (%) (3-epimerase [1]): 120%

O=C(CO)[C@H](O)[C@@H](O)[C@H](O)CO [Sorbose, D-sorbose]
3-epimerase activity for substrate (3-epimerase [2]): active
Relative activity (%) (3-epimerase [2]): 21%

[Zn+2] [Zn^2+]
effect of metal ion on enzyme activity (3-epimerase [1]): inhibit the enzyme activity
Relative activity (%) (3-epimerase [1]): 0%
